# Assay results from paper PMC3508077 (Bioorganic & medicinal chemistry, 2012).
# What was measured:
# [1] = system: NAD(P)H:quinone reductase 1 (QR1); settings: for QR1 induction activity in the mutant cell lines (in words): Taoc1BP^rc1 and BP^rc1 mutant cell lines; for Inducer class (monofunctional / bifunctional): from QR1 induction in Taoc1BP^rc1 and BP^rc1 mutants
# [2] = system: NAD(P)H:quinone reductase 1 (QR1); test: cells; settings: Mus musculus, 48 h, read-out: CD (concentration that doubles the activity)
# [3] = system: NAD(P)H:quinone reductase 1 (QR1); test: QR1 induction assay in Hepa 1c1c7 murine hepatoma cells; assay type: cell-based; settings: Hepa 1c1c7 cells
# NF-κB [4] = system: NF-κB
# [5] = system: inducible nitric oxide synthase (iNOS)
# [6] = system: NAD(P)H:quinone reductase 1 (QR1); settings: cited from earlier work
# NF-κB [7] = settings: cited from earlier work
# [8] = target: T1, human aromatase (CYP19 enzyme) (Homo sapiens, UniProt P11511); settings: cited from earlier work
# T1 sequence (P11511 1-503): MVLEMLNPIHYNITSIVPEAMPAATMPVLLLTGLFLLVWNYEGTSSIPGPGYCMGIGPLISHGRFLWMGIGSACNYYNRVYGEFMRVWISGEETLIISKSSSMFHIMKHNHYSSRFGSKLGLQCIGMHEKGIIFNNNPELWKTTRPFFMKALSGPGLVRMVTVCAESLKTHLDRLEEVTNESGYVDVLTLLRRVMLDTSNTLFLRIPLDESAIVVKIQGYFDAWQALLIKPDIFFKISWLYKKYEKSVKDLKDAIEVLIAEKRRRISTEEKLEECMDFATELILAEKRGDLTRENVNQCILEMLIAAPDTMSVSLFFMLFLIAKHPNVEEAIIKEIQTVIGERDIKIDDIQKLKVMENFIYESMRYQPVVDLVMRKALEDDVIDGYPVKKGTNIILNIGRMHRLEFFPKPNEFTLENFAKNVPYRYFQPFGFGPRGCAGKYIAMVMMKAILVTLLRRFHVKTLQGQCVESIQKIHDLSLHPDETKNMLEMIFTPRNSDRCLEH
# [9] = target: T1, human aromatase (CYP19 enzyme); settings: read-out: Aromatase IC50
smiles,measurement,setting,value
"Clc1cccc(-c2nc(-c3ccccc3)cs2)c1Cl [Compound 9c, 2-(2,3-Dichlorophenyl)-4-phenylthiazole]",QR1 induction activity in the mutant cell lines (in words),[1],active
"Cc1ccc(Cl)cc1-c1nc(-c2ccccc2)cs1 [Compound 9h, 2-(5-Chloro-2-methylphenyl)-4-phenylthiazole]",Inducer class (monofunctional / bifunctional),[1],monofunctional
"O=c1cc(-c2ccc(Br)cc2)oc2ccccc12 [4′-Bromoflavone, reference compound]",Inducer class (monofunctional / bifunctional),[1],bifunctional
"COc1cccc(-c2csc(-c3cc(Cl)ccc3C)n2)c1 [Compound 9u, 2-(5-Chloro-2-methylphenyl)-4-(3-methoxyphenyl)thiazole]",Inducer class (monofunctional / bifunctional),[1],monofunctional
"Cc1ccc(-c2nc(-c3ccccc3)cs2)c(Br)c1 [Compound 9l, 2-(2-Bromo-4-methylphenyl)-4-phenylthiazole]",EC (2-fold QR1 activity),[2],> 50 µM
COc1cccc(-c2csc(-c3cccc(OC)c3)n2)c1 [Compound 9o],CD value compared with that of resveratrol (times better),[3],241 times
same,NF-κB inhibitory activity (in words),NF-κB [4],weak
same,QR1 induction activity in the mutant cell lines (in words),[1],not active
"COc1cccc(-c2csc(-c3cc(OC)ccc3F)n2)c1 [Compound 13b, 2-(2-Fluoro-5-methoxyphenyl)-4-(3-methoxyphenyl)thiazole]",QR1 induction activity (in words),[3],inactive
same,EC (2-fold QR1 activity),[2],> 50 µM
"Fc1ccccc1-c1nsc(-c2ccccc2)n1 [Compound 6b, 3-(2-Fluorophenyl)-5-phenyl-1,2,4-thiadiazole]",EC (2-fold QR1 activity),[2],> 50 µM
"COc1cccc(-c2csc(-c3cccc(Br)c3)n2)c1 [Compound 9w, 2-(3-Bromophenyl)-4-(3-methoxyphenyl)thiazole]",EC (2-fold QR1 activity),[2],> 50 µM
"Cc1c(Cl)cccc1-c1nc(-c2ccccc2)cs1 [Compound 9f, 2-(3-Chloro-2-methylphenyl)-4-phenylthiazole]",EC (2-fold QR1 activity),[2],> 50 µM
COc1cccc(-c2noc(-c3cccc(OC)c3)n2)c1 [Compound 15],EC (2-fold QR1 activity),[2],> 50 µM
"Clc1cccc(Cl)c1-c1nc(-c2ccccc2)cs1 [Compound 9i, 2-(2,6-Dichlorophenyl)-4-phenylthiazole]",EC (2-fold QR1 activity),[2],> 50 µM
"COc1cccc(-c2csc(-c3cccc(OC)c3F)n2)c1 [Compound 13a, 2-(2-Fluoro-3-methoxyphenyl)-4-(3-methoxyphenyl)thiazole]",QR1 induction activity (in words),[3],inactive
same,EC (2-fold QR1 activity),[2],> 50 µM
"COc1cccc(-c2csc(-c3cccc(Cl)c3C)n2)c1 [Compound 9p, 2-(3-Chloro-2-methylphenyl)-4-(3-methoxyphenyl)thiazole]",EC (2-fold QR1 activity),[2],> 50 µM
"CCCCc1ccc(-c2nc(-c3ccccc3)cs2)cc1 [Compound 9m, 2-(4-n-Butylphenyl)-4-phenylthiazole]",EC (2-fold QR1 activity),[2],> 50 µM
"COc1cccc(-c2nc(-c3ccccc3)cs2)c1 [Compound 9e, 2-(3-Methoxyphenyl)-4-phenylthiazole]",EC (2-fold QR1 activity),[2],> 50 µM
same,NF-κB inhibitory activity (in words),NF-κB [4],low micromolar
same,Inhibitory activity vs. iNOS (in words),[5],weak
same,QR1 induction activity in the mutant cell lines (in words),[1],not active
COc1cccc(-c2nsc(-c3cccc(OC)c3)n2)c1 [Compound 16],EC (2-fold QR1 activity),[2],> 50 µM
"COc1cccc(-c2csc(-c3ccc(C)cc3Br)n2)c1 [Compound 9t, 2-(2-Bromo-4-methylphenyl)-4-(3-methoxyphenyl)thiazole]",EC (2-fold QR1 activity),[2],> 50 µM
"FC(F)(F)c1ccccc1-c1nc(-c2ccccc2)cs1 [Compound 9a, 4-Phenyl-2-[2-(trifluoromethyl)phenyl]thiazole]",QR1 induction activity (in words),[3],inactive
same,EC (2-fold QR1 activity),[2],> 50 µM
"Cc1cc(Cl)ccc1-c1nc(-c2ccccc2)cs1 [Compound 9j, 2-(4-Chloro-2-methylphenyl)-4-phenylthiazole]",Inducer class (monofunctional / bifunctional),[1],monofunctional
"CCCCc1ccc(-c2nc(-c3cccc(OC)c3)cs2)cc1 [Compound 9v, 2-(4-n-Butylphenyl)-4-(3-methoxyphenyl)thiazole]",EC (2-fold QR1 activity),[2],> 50 µM
"Brc1cccc(-c2nc(-c3ccccc3)cs2)c1 [Compound 9d, 2-(3-Bromophenyl)-4-phenylthiazole]",EC (2-fold QR1 activity),[2],> 50 µM
"Clc1ccc(Cl)c(-c2nc(-c3ccccc3)cs2)c1 [Compound 9g, 2-(2,5-Dichlorophenyl)-4-phenylthiazole]",QR1 induction activity in the mutant cell lines (in words),[1],active
"COc1cccc(-c2csc(-c3cccc(Cl)c3Cl)n2)c1 [Compound 9q, 2-(2,3-Dichlorophenyl)-4-(3-methoxyphenyl)thiazole]",EC (2-fold QR1 activity),[2],> 50 µM
same,QR1 induction activity in the mutant cell lines (in words),[1],did not display activity
"COc1cccc(-c2csc(-c3cccc(F)c3F)n2)c1 [Compound 9r, 2-(2,3-Difluorophenyl)-4-(3-methoxyphenyl)thiazole]",EC (2-fold QR1 activity),[2],> 50 µM
"Fc1ccccc1-c1nsc(-c2ccccc2F)n1 [Compound 3, 3,5-bis(2-fluorophenyl)-1,2,4-thiadiazole]",CD (concentration that doubles QR1 activity),[6],1.8 µM
same,IR (QR1 induction ratio),[6],10.5
same,EC (2-fold QR1 activity),[2],29.4 ± 1.3 µM
"c1ccc(-c2nsc(-c3ccccc3)n2)cc1 [Compound 2, 3,5-Diphenyl-1,2,4-thiadiazole]",CD value compared with resveratrol (times lower),[6],10 times
same,EC (2-fold QR1 activity),[2],> 50 µM
same,Activity as an inhibitor of NF-κB (in words),NF-κB [7],weak
same,Activity as an aromatase inhibitor (in words),[8],weak
same,IC50,[9],32.7 ± 3.8 µM
"COc1cccc(-c2csc(-c3ccccc3)n2)c1 [Compound 9n, 4-(3-Methoxyphenyl)-2-phenylthiazole]",NF-κB inhibitory activity (in words),NF-κB [4],weak
same,Inhibitory activity vs. iNOS (in words),[5],weak
same,QR1 induction activity in the mutant cell lines (in words),[1],not active
